Paper PMC6967030, “Apparent Lack of BRAF^V600E Derived HLA Class I Presented Neoantigens Hampers Neoplastic Cell Targeting by CD8^+ T Cells in Langerhans Cell Histiocytosis” (Frontiers in Immunology, 2020)
Ends that are not written are not given here.

Columns and labels:
Experiment in all cases: Competition-based peptide-HLA class I binding assay
HLA-A*11:01 = HLA-A*11:01 (Homo sapiens, UniProt P04439, A114D/D185E/E176A/F33Y/L180Q/S129P/T187R); conditions: concentration that inhibits 50% binding of fluorescently-labeled standard peptide […], read-out: In vitro HLA binding affinity (IC50, nM), peptide-HLA binding assay, A*11:01
Procedure: (§1) Competition-based peptide-HLA class I binding assays were performed as previously described ([60]). […] The standard peptides were […] for HLA-A^*02:01 and […] for HLA-A^*03:01 and HLA-A^*11:01.

HLA-A*03:01 = HLA-A*03:01 (Homo sapiens, UniProt P04439); conditions: concentration that inhibits 50% binding of fluorescently-labeled standard peptide […], read-out: In vitro HLA binding affinity (IC50, nM), peptide-HLA binding assay, A*03:01
Procedure: as §1

HLA-A*02:01 = HLA-A*02:01 (Homo sapiens, UniProt P04439, D140Y/D185E/D98H/E176V/E277Q/G131W/G231S/I119V/I121R/I166T/I218V/L300P/L318F/N151K/N90K/P208A/P217A/Q86G/Q94H/R138H/R169H/T345S); conditions: concentration that inhibits 50% binding of fluorescently-labeled standard peptide […], read-out: In vitro HLA binding affinity (IC50, nM), peptide-HLA binding assay, A*02:01
Procedure: Competition-based peptide-HLA class I binding assays were performed as previously described ([60]).

Sequence	IC50 (HLA-A*11:01) [nM]	IC50 (HLA-A*03:01) [nM]	IC50 (HLA-A*02:01) [nM]
KIGDFGLATEK	45	672	
KIGDFGLATVK	32	415	
KIGDFGLATV			40
KIGDFGLATE [KIGDFGLATE]			86900
